# Patent US7468384B2, “Microbicidal composition” (Rohm and Haas Company, priority 2004, dated 2008)
# Where two headings read alike, the source gives them in different places.
# Test system: S. aureus 6538
# Test: Synergy test, microtiter plate high resolution MIC assay, bacterium
# Type: cell-based
# Conditions: for SI (calculated synergy index): S. aureus 6538, TSB
# Description: One measure of synergism is the industrially accepted method described by Kull, F. C.; Eisman, P. C.; Sylwestrowicz, H. D. and Mayer, R. L., in Applied Microbiology 9:538-541 (1961), using the ratio determined by the formula: Qa/QA+Qb/QB=Synergy Index (“SI”) wherein: • QA=concentration of compound A (first component) in ppm, acting alone, which produced an end point (MIC of Compound A). • Qa=concentration of compound A in ppm, in the mixture, which produced an end point. • QB=concentration of compound B (second component) in ppm, acting alone, which produced an end point (MIC of Compound B). • Qb=concentration of compound B in ppm, in the mixture, which produced an end point.
# When the sum of Qa/QA and Qb/QB is greater than one, antagonism is indicated. […] The lower the SI, the greater the synergy shown by that particular mixture. The minimum inhibitory concentration (MIC) of a microbicide is the lowest concentration tested under a specific set of conditions that prevents the growth of added microorganisms.
# Synergy tests were conducted using standard microtiter plate assays with media designed for optimal growth of the test microorganism. Soybean Casein Digest Broth (Tryptic Soy Broth, TSB medium) or minimal salt medium supplemented with 0.2% glucose and 0.1% yeast extract (M9GY medium) was used for testing bacteria; Potato Dextrose Broth (PDB medium) was used for testing yeast and mold. In this method, a wide range of combinations of microbicides was tested by conducting high resolution MIC assays in the presence of various concentrations of MI. High resolution MICs were determined by adding varying amounts of microbicide to one column of a microtitre plate and doing subsequent ten-fold dilutions using an automated liquid handling system to obtain a series of endpoints ranging from 2 ppm to 10,000 ppm active ingredient.
structure (smiles),measurement,setting,value
"Cn1sccc1=O [2-methyl-3-isothiazolone, 2-methyl-4-isothiazolin-3-one]",MIC,"Staphylococcus aureus, 6538, 24 h, read-out: Qa: end-point activity (MIC) of MI in the mixture (MI alone, QA, where Qb = 0)",200 µg/mL
same,MIC,"Staphylococcus aureus, 6538, 48 h, read-out: MIC of component acting alone (QA / QB)",300 µg/mL
same,MIC,"Staphylococcus aureus, 6538, 48 h, read-out: Qa: end-point activity (MIC) of MI in the mixture (MI alone, QA, where Qb = 0)",300 µg/mL
same,MIC,"Staphylococcus aureus, 6538, 72 h, read-out: MIC of component acting alone (QA / QB)",300 µg/mL
same,SI (calculated synergy index),"Table 5, 48 hours",1.00
same,SI (calculated synergy index),"Table 6, 24 hours",1.00
